# Laboratory results from PubChem BioAssay (NCI).
#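 Exposure lasted 48 hours, with cells grown in 96-well plates and compounds tested at five concentrations. GI50 marks 50% less growth. At the TGI there is no net growth.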
# Assays:
# Assay in all cases: NCI tumour cell line growth inhibition, 48 h
# 786-0 renal = test system: 786-0 renal
# A498 renal = test system: A498 renal
# A549 NSCLC = test system: A549 NSCLC
# ACHN renal = test system: ACHN renal
# BT-549 breast = test system: BT-549 breast
# CAKI-1 renal = test system: CAKI-1 renal
# CCRF-CEM leukemia = test system: CCRF-CEM leukemia
# COLO 205 colon = test system: COLO 205 colon
# DU-145 prostate = test system: DU-145 prostate
# HCC-2998 colon = test system: HCC-2998 colon
# HCT-116 colon = test system: HCT-116 colon
# HCT-15 colon = test system: HCT-15 colon
# HL-60(TB) leukemia = test system: HL-60(TB) leukemia
# HOP-62 NSCLC = test system: HOP-62 NSCLC
# HOP-92 NSCLC = test system: HOP-92 NSCLC
# HS 578T breast = test system: HS 578T breast
# HT29 colon = test system: HT29 colon
# IGROV1 ovarian = test system: IGROV1 ovarian
# K-562 leukemia = test system: K-562 leukemia
# KM12 colon = test system: KM12 colon
# LOX IMVI melanoma = test system: LOX IMVI melanoma
# M14 melanoma = test system: M14 melanoma
# MALME-3M melanoma = test system: MALME-3M melanoma
# MCF7 breast = test system: MCF7 breast
# MDA-MB-231 breast = test system: MDA-MB-231 breast
# MDA-MB-435 = test system: MDA-MB-435
# MOLT-4 leukemia = test system: MOLT-4 leukemia
# NCI-H226 lung = test system: NCI-H226 lung
# NCI-H23 lung = test system: NCI-H23 lung
# NCI-H460 lung = test system: NCI-H460 lung
# NCI-H522 lung = test system: NCI-H522 lung
# NCI/ADR-RES ovarian = test system: NCI/ADR-RES ovarian
# OVCAR-3 ovarian = test system: OVCAR-3 ovarian
# OVCAR-4 ovarian = test system: OVCAR-4 ovarian
# OVCAR-5 ovarian = test system: OVCAR-5 ovarian
# OVCAR-8 ovarian = test system: OVCAR-8 ovarian
# PC-3 prostate = test system: PC-3 prostate
# RPMI-8226 leukemia = test system: RPMI-8226 leukemia
# RXF 393 renal = test system: RXF 393 renal
# SF-268 CNS = test system: SF-268 CNS
# SF-295 CNS = test system: SF-295 CNS
# SF-539 CNS = test system: SF-539 CNS
# SK-MEL-2 melanoma = test system: SK-MEL-2 melanoma
# SK-MEL-28 melanoma = test system: SK-MEL-28 melanoma
# SK-MEL-5 melanoma = test system: SK-MEL-5 melanoma
# SK-OV-3 ovarian = test system: SK-OV-3 ovarian
# SN12C renal = test system: SN12C renal
# SNB-19 CNS = test system: SNB-19 CNS
# SNB-75 CNS = test system: SNB-75 CNS
# SR leukemia = test system: SR leukemia
# SW-620 colon = test system: SW-620 colon
# T-47D breast = test system: T-47D breast
# TK-10 renal = test system: TK-10 renal
# U251 CNS = test system: U251 CNS
# UACC-257 melanoma = test system: UACC-257 melanoma
# UACC-62 melanoma = test system: UACC-62 melanoma
# UO-31 renal = test system: UO-31 renal
structure (smiles),measurement,setting,value
Cn1cc(C2=C(Oc3ccccc3)C(=O)NC2=O)c2ccccc21,GI50,786-0 renal,> 25 µM
same,TGI,786-0 renal,> 25 µM
same,GI50,A498 renal,> 25 µM
same,TGI,A498 renal,> 25 µM
same,GI50,A549 NSCLC,> 25 µM
same,TGI,A549 NSCLC,> 25 µM
same,GI50,ACHN renal,> 25 µM
same,TGI,ACHN renal,> 25 µM
same,GI50,BT-549 breast,> 25 µM
same,TGI,BT-549 breast,> 25 µM
same,GI50,CAKI-1 renal,> 25 µM
same,TGI,CAKI-1 renal,> 25 µM
same,GI50,CCRF-CEM leukemia,> 25 µM
same,TGI,CCRF-CEM leukemia,> 25 µM
same,GI50,COLO 205 colon,> 25 µM
same,TGI,COLO 205 colon,> 25 µM
same,GI50,DU-145 prostate,> 25 µM
same,TGI,DU-145 prostate,> 25 µM
same,GI50,HCC-2998 colon,> 25 µM
same,TGI,HCC-2998 colon,> 25 µM
same,GI50,HCT-116 colon,> 25 µM
same,TGI,HCT-116 colon,> 25 µM
same,GI50,HCT-15 colon,> 25 µM
same,TGI,HCT-15 colon,> 25 µM
same,GI50,HL-60(TB) leukemia,> 25 µM
same,TGI,HL-60(TB) leukemia,> 25 µM
same,GI50,HOP-62 NSCLC,> 17.8 µM
same,TGI,HOP-62 NSCLC,> 25 µM
same,GI50,HOP-92 NSCLC,6.32 µM
same,TGI,HOP-92 NSCLC,> 25 µM
same,GI50,HS 578T breast,> 25 µM
same,TGI,HS 578T breast,> 25 µM
same,GI50,HT29 colon,> 25 µM
same,TGI,HT29 colon,> 25 µM
same,GI50,IGROV1 ovarian,> 25 µM
same,TGI,IGROV1 ovarian,> 25 µM
same,GI50,K-562 leukemia,> 25 µM
same,TGI,K-562 leukemia,> 25 µM
same,GI50,KM12 colon,> 25 µM
same,TGI,KM12 colon,> 25 µM
same,GI50,LOX IMVI melanoma,> 25 µM
same,TGI,LOX IMVI melanoma,> 25 µM
same,GI50,M14 melanoma,> 25 µM
same,TGI,M14 melanoma,> 25 µM
same,GI50,MALME-3M melanoma,> 25 µM
same,TGI,MALME-3M melanoma,> 25 µM
same,GI50,MCF7 breast,> 25 µM
same,TGI,MCF7 breast,> 25 µM
same,GI50,MDA-MB-231 breast,> 19.3 µM
same,TGI,MDA-MB-231 breast,> 25 µM
same,GI50,MDA-MB-435,> 25 µM
same,TGI,MDA-MB-435,> 25 µM
same,GI50,MOLT-4 leukemia,> 25 µM
same,TGI,MOLT-4 leukemia,> 25 µM
same,GI50,NCI-H226 lung,> 25 µM
same,TGI,NCI-H226 lung,> 25 µM
same,GI50,NCI-H23 lung,> 25 µM
same,TGI,NCI-H23 lung,> 25 µM
same,GI50,NCI-H460 lung,> 25 µM
same,TGI,NCI-H460 lung,> 25 µM
same,GI50,NCI-H522 lung,> 25 µM
same,TGI,NCI-H522 lung,> 25 µM
same,GI50,NCI/ADR-RES ovarian,> 25 µM
same,TGI,NCI/ADR-RES ovarian,> 25 µM
same,GI50,OVCAR-3 ovarian,> 25 µM
same,TGI,OVCAR-3 ovarian,> 25 µM
same,GI50,OVCAR-4 ovarian,> 25 µM
same,TGI,OVCAR-4 ovarian,> 25 µM
same,GI50,OVCAR-5 ovarian,> 25 µM
same,TGI,OVCAR-5 ovarian,> 25 µM
same,GI50,OVCAR-8 ovarian,> 25 µM
same,TGI,OVCAR-8 ovarian,> 25 µM
same,GI50,PC-3 prostate,> 25 µM
same,TGI,PC-3 prostate,> 25 µM
same,GI50,RPMI-8226 leukemia,> 25 µM
same,TGI,RPMI-8226 leukemia,> 25 µM
same,GI50,RXF 393 renal,> 25 µM
same,TGI,RXF 393 renal,> 25 µM
same,GI50,SF-268 CNS,> 25 µM
same,TGI,SF-268 CNS,> 25 µM
same,GI50,SF-295 CNS,> 25 µM
same,TGI,SF-295 CNS,> 25 µM
same,GI50,SF-539 CNS,> 25 µM
same,TGI,SF-539 CNS,> 25 µM
same,GI50,SK-MEL-2 melanoma,> 25 µM
same,TGI,SK-MEL-2 melanoma,> 25 µM
same,GI50,SK-MEL-28 melanoma,> 25 µM
same,TGI,SK-MEL-28 melanoma,> 25 µM
same,GI50,SK-MEL-5 melanoma,> 25 µM
same,TGI,SK-MEL-5 melanoma,> 25 µM
same,GI50,SK-OV-3 ovarian,> 25 µM
same,TGI,SK-OV-3 ovarian,> 25 µM
same,GI50,SN12C renal,> 25 µM
same,TGI,SN12C renal,> 25 µM
same,GI50,SNB-19 CNS,> 25 µM
same,TGI,SNB-19 CNS,> 25 µM
same,GI50,SNB-75 CNS,> 12.4 µM
same,TGI,SNB-75 CNS,> 25 µM
same,GI50,SR leukemia,> 25 µM
same,TGI,SR leukemia,> 25 µM
same,GI50,SW-620 colon,> 25 µM
same,TGI,SW-620 colon,> 25 µM
same,GI50,T-47D breast,> 25 µM
same,TGI,T-47D breast,> 25 µM
same,GI50,TK-10 renal,> 25 µM
same,TGI,TK-10 renal,> 25 µM
same,GI50,U251 CNS,> 25 µM
same,TGI,U251 CNS,> 25 µM
same,GI50,UACC-257 melanoma,> 25 µM
same,TGI,UACC-257 melanoma,> 25 µM
same,GI50,UACC-62 melanoma,> 25 µM
same,TGI,UACC-62 melanoma,> 25 µM
same,GI50,UO-31 renal,> 25 µM
same,TGI,UO-31 renal,> 25 µM
